For 19 molecules, activity coefficient results are on record in the NIST ThermoML archive (doi:10.1016/j.jct.2011.11.021).

Numbers after ± are expanded uncertainties.

A short description of this data set: activity coefficient (dimensionless); of the first substance listed, at infinite dilution; xn = mol fraction of the nth substance listed. To be noted: Liquid, Chromatography, x1 = 0.

Consider `C=CCCCC` [hex-1-ene] + COCC[N+]1(C)CCOCC1.O=S(=O)([N-]S(=O)(=O)C(F)(F)F)C(F)(F)F, for which the activity coefficient is 16.5 ± 1.1 (318.15 K); 15.3 ± 1 (328.15 K); 14.3 ± 1 (338.15 K); 13.6 ± 0.9 (348.15 K); 12.9 ± 0.9 (358.15 K); 12.1 ± 0.8 (368.15 K).
`CCOCC` [diethyl ether] + COCC[N+]1(C)CCOCC1.O=S(=O)([N-]S(=O)(=O)C(F)(F)F)C(F)(F)F: the activity coefficient is, setting by setting: (318.15 K) 3.49 ± 0.24; (328.15 K) 3.46 ± 0.24; (338.15 K) 3.44 ± 0.23; (348.15 K) 3.41 ± 0.23; (358.15 K) 3.39 ± 0.23; (368.15 K) 3.37 ± 0.23.
As for `c1ccncc1` [pyridine] + COCC[N+]1(C)CCOCC1.O=S(=O)([N-]S(=O)(=O)C(F)(F)F)C(F)(F)F, the activity coefficient (318.15 K) is 0.64 ± 0.044; the activity coefficient (328.15 K) is 0.644 ± 0.044; the activity coefficient (338.15 K) is 0.648 ± 0.044; the activity coefficient (348.15 K) is 0.651 ± 0.045; the activity coefficient (358.15 K) is 0.654 ± 0.045; the activity coefficient (368.15 K) amounted to 0.658 ± 0.045.
For the molecule `CCC(C)O` (stereo not drawn) [butan-2-ol] + COCC[N+]1(C)CCOCC1.O=S(=O)([N-]S(=O)(=O)C(F)(F)F)C(F)(F)F, the activity coefficient is, setting by setting: (318.15 K) 2.76 ± 0.19; (328.15 K) 2.47 ± 0.17; (338.15 K) 2.26 ± 0.15; (348.15 K) 2.06 ± 0.14; (358.15 K) 1.9 ± 0.13; (368.15 K) 1.78 ± 0.12.
Take `COC(C)=O` [methyl ethanoate] + COCC[N+]1(C)CCOCC1.O=S(=O)([N-]S(=O)(=O)C(F)(F)F)C(F)(F)F: the activity coefficient by setting is: (318.15 K) 0.684 ± 0.046; (328.15 K) 0.7 ± 0.047; (338.15 K) 0.714 ± 0.048; (348.15 K) 0.729 ± 0.048; (358.15 K) 0.74 ± 0.049; (368.15 K) 0.754 ± 0.05.
As for `CCC(C)CC` [3-methylpentane] + COCC[N+]1(C)CCOCC1.O=S(=O)([N-]S(=O)(=O)C(F)(F)F)C(F)(F)F, the activity coefficient by setting is: (318.15 K) 32.3 ± 2.2; (328.15 K) 29 ± 2; (338.15 K) 26.3 ± 1.8; (348.15 K) 23.9 ± 1.6; (358.15 K) 21.9 ± 1.5; (368.15 K) 20.2 ± 1.4.
With `C#CCCCC` [1-hexyne] + COCC[N+]1(C)CCOCC1.O=S(=O)([N-]S(=O)(=O)C(F)(F)F)C(F)(F)F, the activity coefficient reads like this: (318.15 K) 4.88 ± 0.33; (328.15 K) 4.8 ± 0.33; (338.15 K) 4.75 ± 0.32; (348.15 K) 4.7 ± 0.32; (358.15 K) 4.65 ± 0.32; (368.15 K) 4.61 ± 0.31.
With `CCCCCCCCCC` [decane] + COCC[N+]1(C)CCOCC1.O=S(=O)([N-]S(=O)(=O)C(F)(F)F)C(F)(F)F, the activity coefficient amounted to 192 ± 13 (318.15 K); 165 ± 11 (328.15 K); 145 ± 10 (338.15 K); 126 ± 9 (348.15 K); 111 ± 8 (358.15 K); 98.2 ± 6.7 (368.15 K).
As for `CCCC(=O)OC` [methyl butanoate] + COCC[N+]1(C)CCOCC1.O=S(=O)([N-]S(=O)(=O)C(F)(F)F)C(F)(F)F, the activity coefficient runs as follows: (318.15 K) 1.42 ± 0.09; (328.15 K) 1.44 ± 0.09; (338.15 K) 1.45 ± 0.1; (348.15 K) 1.45 ± 0.1; (358.15 K) 1.46 ± 0.1; (368.15 K) 1.48 ± 0.1.
On to `C1CCCCCC1` [cycloheptane] + COCC[N+]1(C)CCOCC1.O=S(=O)([N-]S(=O)(=O)C(F)(F)F)C(F)(F)F, for which the activity coefficient runs as follows: (318.15 K) 26.2 ± 1.8; (328.15 K) 23.6 ± 1.6; (338.15 K) 21.5 ± 1.5; (348.15 K) 19.7 ± 1.3; (358.15 K) 18.1 ± 1.2; (368.15 K) 16.6 ± 1.1.
On to `CC(C)O` [propan-2-ol] + COCC[N+]1(C)CCOCC1.O=S(=O)([N-]S(=O)(=O)C(F)(F)F)C(F)(F)F, for which the activity coefficient is, setting by setting: (318.15 K) 2.17 ± 0.15; (328.15 K) 1.95 ± 0.13; (338.15 K) 1.79 ± 0.12; (348.15 K) 1.63 ± 0.11; (358.15 K) 1.5 ± 0.1; (368.15 K) 1.4 ± 0.09.
`Cc1ccc(C)cc1` [1,4-dimethylbenzene] + COCC[N+]1(C)CCOCC1.O=S(=O)([N-]S(=O)(=O)C(F)(F)F)C(F)(F)F: the activity coefficient runs as follows: (318.15 K) 3.09 ± 0.21; (328.15 K) 3.06 ± 0.21; (338.15 K) 3.03 ± 0.21; (348.15 K) 3 ± 0.2; (358.15 K) 2.98 ± 0.2; (368.15 K) 2.96 ± 0.2.
For `CCOC(C)(C)C` [2-ethoxy-2-methylpropane] + COCC[N+]1(C)CCOCC1.O=S(=O)([N-]S(=O)(=O)C(F)(F)F)C(F)(F)F, the activity coefficient (318.15 K) amounted to 9.5 ± 0.65; the activity coefficient (328.15 K) was 9.21 ± 0.63; the activity coefficient (338.15 K) was found to be 8.97 ± 0.61; the activity coefficient (348.15 K) came to 8.75 ± 0.6; the activity coefficient (358.15 K) turned out to be 8.49 ± 0.58; the activity coefficient (368.15 K) came to 8.3 ± 0.57.
Turning to `CCCCCCCC` [octane] + COCC[N+]1(C)CCOCC1.O=S(=O)([N-]S(=O)(=O)C(F)(F)F)C(F)(F)F, the activity coefficient is, setting by setting: (318.15 K) 82.1 ± 5.6; (328.15 K) 71.6 ± 4.9; (338.15 K) 64.6 ± 4.4; (348.15 K) 58.4 ± 4; (358.15 K) 51.7 ± 3.5; (368.15 K) 47.3 ± 3.2.
On to `CC(C)OC(C)C` [diisopropyl ether] + COCC[N+]1(C)CCOCC1.O=S(=O)([N-]S(=O)(=O)C(F)(F)F)C(F)(F)F, for which the activity coefficient by setting is: (318.15 K) 10.1 ± 0.7; (328.15 K) 9.8 ± 0.67; (338.15 K) 9.55 ± 0.65; (348.15 K) 9.26 ± 0.63; (358.15 K) 8.98 ± 0.61; (368.15 K) 8.75 ± 0.6.
Regarding `CCOC(C)=O` [ethyl acetate] + COCC[N+]1(C)CCOCC1.O=S(=O)([N-]S(=O)(=O)C(F)(F)F)C(F)(F)F, the activity coefficient was 0.984 ± 0.062 (318.15 K); 1 ± 0.06 (328.15 K); 1.02 ± 0.06 (338.15 K); 1.03 ± 0.06 (348.15 K); 1.04 ± 0.07 (358.15 K); 1.06 ± 0.07 (368.15 K).
With `CCO` [ethanol] + COCC[N+]1(C)CCOCC1.O=S(=O)([N-]S(=O)(=O)C(F)(F)F)C(F)(F)F, the activity coefficient was found to be 1.77 ± 0.12 (318.15 K); 1.61 ± 0.11 (328.15 K); 1.49 ± 0.1 (338.15 K); 1.36 ± 0.09 (348.15 K); 1.26 ± 0.08 (358.15 K); 1.17 ± 0.07 (368.15 K).
`CO` [methanol] + COCC[N+]1(C)CCOCC1.O=S(=O)([N-]S(=O)(=O)C(F)(F)F)C(F)(F)F: the activity coefficient by setting is: (318.15 K) 1.28 ± 0.08; (328.15 K) 1.18 ± 0.08; (338.15 K) 1.1 ± 0.07; (348.15 K) 1.02 ± 0.06; (358.15 K) 0.95 ± 0.06; (368.15 K) 0.897 ± 0.057.
Regarding `CCC[N+](=O)[O-]` [1-nitropropane] + COCC[N+]1(C)CCOCC1.O=S(=O)([N-]S(=O)(=O)C(F)(F)F)C(F)(F)F, the activity coefficient (328.15 K) was found to be 0.791 ± 0.051; the activity coefficient (338.15 K) stood at 0.787 ± 0.051; the activity coefficient (348.15 K) worked out at 0.783 ± 0.051; the activity coefficient (358.15 K) was 0.78 ± 0.051; the activity coefficient (368.15 K) stood at 0.778 ± 0.051.
